System: 624824-186-R-J2-PDC multicell spheroids, viability
Assay: Anticancer human tumor 624824-186-R-J2-PDC patient-derived colon adenocarcinoma cell line growth inhibition [PI3K]
Conditions: for IC50: curve of first compound; for viability, T/C: stronger effect = lower value; active means viability on the fitted dose curve at most 10% of control; inactive means the rest
Outline: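 High-throughput combination screen: PI3K inhibitors crossed with targeted small molecules on complex spheroids of tumor cells, HUVEC and MSCs at 37 degrees C, 5% CO2. Top concentration was at or near clinical Cmax (otherwise 10 microM), with half-log decrements.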
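Further: spheroids exposed to agents for 7 days before viability read.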
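Wherever viability, T/C is given: 100% = DMSO vehicle treated spheroids.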

Cn1nccc1Nc1nccc(-c2ccn(C(CO)c3ccc(Cl)c(F)c3)c(=O)c2)n1 (centres undefined) + CC(Nc1ncnc2nc[nH]c12)c1cc2cccc(Cl)c2c(=O)n1-c1ccccc1
inactive: viability, T/C (second compound 0.0316 µM, first compound 0.0316 µM) 73.9% | viability, T/C (second compound 0.0316 µM, first compound 0.1 µM) 61.6% | viability, T/C (second compound 0.0316 µM, first compound 0.316 µM) 72.4% | viability, T/C (second compound 0.0316 µM, first compound 1 µM) 76.7% | viability, T/C (second compound 0.0316 µM, first compound 3.16 µM) 87.6% | viability, T/C (second compound 0.0316 µM, first compound 10 µM) 85.4% | viability, T/C (second compound 0.1 µM, first compound 0.0316 µM) 110% | viability, T/C (second compound 0.1 µM, first compound 0.1 µM) 83.8% | viability, T/C (second compound 0.1 µM, first compound 0.316 µM) 78% | viability, T/C (second compound 0.1 µM, first compound 1 µM) 74.7% | viability, T/C (second compound 0.1 µM, first compound 3.16 µM) 82.4% | viability, T/C (second compound 0.1 µM, first compound 10 µM) 89.6% | viability, T/C (second compound 0.316 µM, first compound 0.0316 µM) 90.7% | viability, T/C (second compound 0.316 µM, first compound 0.1 µM) 94% | viability, T/C (second compound 0.316 µM, first compound 0.316 µM) 59.5% | viability, T/C (second compound 0.316 µM, first compound 1 µM) 66.1% | viability, T/C (second compound 0.316 µM, first compound 3.16 µM) 82.1% | viability, T/C (second compound 0.316 µM, first compound 10 µM) 83.7% | viability, T/C (second compound 1 µM, first compound 0.0316 µM) 96% | viability, T/C (second compound 1 µM, first compound 0.1 µM) 87.4% | viability, T/C (second compound 1 µM, first compound 0.316 µM) 67.8% | viability, T/C (second compound 1 µM, first compound 1 µM) 74.2% | viability, T/C (second compound 1 µM, first compound 3.16 µM) 80.3% | viability, T/C (second compound 1 µM, first compound 10 µM) 79.7% | viability, T/C (second compound 3.16 µM, first compound 0.0316 µM) 106% | viability, T/C (second compound 3.16 µM, first compound 0.1 µM) 70.2% | viability, T/C (second compound 3.16 µM, first compound 0.316 µM) 61.9% | viability, T/C (second compound 3.16 µM, first compound 1 µM) 77.7% | viability, T/C (second compound 3.16 µM, first compound 3.16 µM) 75.5% | viability, T/C (second compound 3.16 µM, first compound 10 µM) 63.7% | viability, T/C (second compound 10 µM, first compound 0.0316 µM) 82.1% | viability, T/C (second compound 10 µM, first compound 0.1 µM) 90.2% | viability, T/C (second compound 10 µM, first compound 0.316 µM) 85.9% | viability, T/C (second compound 10 µM, first compound 1 µM) 70.8% | viability, T/C (second compound 10 µM, first compound 3.16 µM) 67.8% | viability, T/C (second compound 10 µM, first compound 10 µM) 61%
> 10 µM: IC50 (second compound 0.0316 µM) | IC50 (second compound 0.1 µM) | IC50 (second compound 0.316 µM) | IC50 (second compound 1 µM) | IC50 (second compound 3.16 µM) | IC50 (second compound 10 µM)

Cn1cnc2c(F)c(Nc3ccc(Br)cc3Cl)c(C(=O)NOCCO)cc21 + CC(Nc1ncnc2nc[nH]c12)c1cc2cccc(Cl)c2c(=O)n1-c1ccccc1
> 3 µM: IC50 (second compound 0.0316 µM) | IC50 (second compound 0.1 µM) | IC50 (second compound 0.316 µM) | IC50 (second compound 1 µM) | IC50 (second compound 3.16 µM) | IC50 (second compound 10 µM)
inactive: viability, T/C (second compound 0.0316 µM, first compound 0.00949 µM) 73.3% | viability, T/C (second compound 0.0316 µM, first compound 0.03 µM) 89.5% | viability, T/C (second compound 0.0316 µM, first compound 0.0949 µM) 69.2% | viability, T/C (second compound 0.0316 µM, first compound 0.3 µM) 63.5% | viability, T/C (second compound 0.0316 µM, first compound 0.949 µM) 68% | viability, T/C (second compound 0.0316 µM, first compound 3 µM) 60.6% | viability, T/C (second compound 0.1 µM, first compound 0.00949 µM) 79.8% | viability, T/C (second compound 0.1 µM, first compound 0.03 µM) 62.7% | viability, T/C (second compound 0.1 µM, first compound 0.0949 µM) 70.8% | viability, T/C (second compound 0.1 µM, first compound 0.3 µM) 55.8% | viability, T/C (second compound 0.1 µM, first compound 0.949 µM) 64.2% | viability, T/C (second compound 0.1 µM, first compound 3 µM) 62.1% | viability, T/C (second compound 0.316 µM, first compound 0.00949 µM) 86.9% | viability, T/C (second compound 0.316 µM, first compound 0.03 µM) 64.5% | viability, T/C (second compound 0.316 µM, first compound 0.0949 µM) 58.6% | viability, T/C (second compound 0.316 µM, first compound 0.3 µM) 59.5% | viability, T/C (second compound 0.316 µM, first compound 0.949 µM) 60.5% | viability, T/C (second compound 0.316 µM, first compound 3 µM) 61.2% | viability, T/C (second compound 1 µM, first compound 0.00949 µM) 75.2% | viability, T/C (second compound 1 µM, first compound 0.03 µM) 75.3% | viability, T/C (second compound 1 µM, first compound 0.0949 µM) 65.1% | viability, T/C (second compound 1 µM, first compound 0.3 µM) 67% | viability, T/C (second compound 1 µM, first compound 0.949 µM) 58.5% | viability, T/C (second compound 1 µM, first compound 3 µM) 53.5% | viability, T/C (second compound 3.16 µM, first compound 0.00949 µM) 78.2% | viability, T/C (second compound 3.16 µM, first compound 0.03 µM) 74.7% | viability, T/C (second compound 3.16 µM, first compound 0.0949 µM) 60.6% | viability, T/C (second compound 3.16 µM, first compound 0.3 µM) 59.6% | viability, T/C (second compound 3.16 µM, first compound 0.949 µM) 56.2% | viability, T/C (second compound 3.16 µM, first compound 3 µM) 50.6% | viability, T/C (second compound 10 µM, first compound 0.00949 µM) 72.7% | viability, T/C (second compound 10 µM, first compound 0.03 µM) 71.8% | viability, T/C (second compound 10 µM, first compound 0.0949 µM) 67.4% | viability, T/C (second compound 10 µM, first compound 0.3 µM) 60.7% | viability, T/C (second compound 10 µM, first compound 0.949 µM) 57.5% | viability, T/C (second compound 10 µM, first compound 3 µM) 51.2%

— PubChem BioAssay AID1963975 (Molecular Pharmacology Branch, DTP, NCI, 2024)
